Measured values taken from patent US20220142957A1, “TERPENE BASED THERAPEUTIC DEEP EUTECTIC SYSTEM, METHOD OF OBTAINING AND USES THEREOF” (priority 2019, published 2022).

What was measured:
Caco-2 cells = assay: Cytotoxicity assay in confluent, non-differentiated Caco-2 cells (MTS); type: cell-based, human; settings: isolated compounds, 24 hours, mean ± SD
Method: (§1) The cell culture medium and supplements were purchased from Invitrogen (Gibco, Invitrogen Corporation, UK).
(§2) Cells incubated only with culture medium were considered as control. […] At least three independent experiments were performed in triplicate.
(§3) A p-value<0.05 was considered statistically significant.

HT29 cells [1] = assay: Antiproliferative assay in HT29 cells (MTS); type: cell-based, human; settings: 24 hours, mean ± SD
Method: In one embodiment, human Caco-2 and HT29 cell lines were obtained from Deutsche Sammlung von Mikroorganismen and Zellkulturen (DSMZ, Germany) and American Type Culture Collection (ATCC, USA), respectively. These cell lines were cultured in RPMI 1640 medium supplemented with 10% of heat-inactivated Fetal Bovine Serum (FBS). […] Cells were maintained at 37° C. with 5% CO2 in a humidified incubator and routinely grown as a monolayer in 75 cm^2 culture flasks. The cell culture medium and supplements were purchased from Invitrogen (Gibco, Invitrogen Corporation, UK). In one embodiment, the antiproliferative effect of […] and standard compounds was evaluated in HT29 cells. Briefly, cells were seeded at a density of 1×10^4 cells/well in 96-well culture plates. […] Cells incubated only with culture medium were considered as control. Cell proliferation was measured after 24 hours using MTS reagent, as mentioned above. Results were expressed in terms of percentage of living cells relative to the control. At least three independent experiments were performed in triplicate. In one embodiment, all data were expressed as mean±Standard Deviation (SD).

HT29 cells [2] = assay: Cell cycle assessment by flow cytometry (propidium iodide); settings: 24 hours, non-cytotoxic concentrations (FIG. 5A)
HT29 cells [3] = assay: Apoptosis by caspase-3 activity (NucView488/MitoView633); type: cell-based, human; settings: 2 mM, 24 hours (FIG. 5B)
Method: In one embodiment, apoptosis was evaluated by caspase-3 activity using NucView488™ and MitoView633™ Apoptosis Assay Kit (Biotium, USA) that allows staining of living cells by a far-red fluorescent dye MitoView633™ and the intracellular caspase-3/7 activity and cells nuclei morphological changes by bright green fluorescent dye NucView488™. […] Staining was performed with 200 μL/well of culture medium containing 1 μL of NucView488™ and 1 μL of MitoView633™ for 2 hours. Cells were observed under fluorescence microscope (Leica DM6000, Germany) and image analysis performed using ImageJ software.

[4] = Cytotoxicity assay in confluent, non-differentiated Caco-2 cells (MTS); type: cell-based, human; settings: human, confluent, non-differentiated Caco-2 cells, isolated compounds, mean ± SD
Method: as §1, §2, §3

Row | Compound | EC50 (Caco-2 cells) | EC50 (HT29 cells [1]; isolated compounds) | effect on cell cycle (HT29 cells [2]) | induction of apoptosis via caspase-3 activity (HT29 cells [3]) | EC50 at 24 h [4] | EC50 (HT29 cells [1]; Homo sapiens, HT-29, isolated compounds)
1 | S-Limonene | 2640 ± 108 µM | 661 ± 25 µM | promoted cell cycle arrest in G1-phase | capable of inducing apoptosis via caspase-3 activity |  | 
2 | CC(C)Cc1ccc(C(C)C(=O)O)cc1 (stereo not shown) [IBU, Ibuprofen] |  |  | promoted cell cycle arrest in G1-phase |  |  | 
3 | CCCCCCCCCC(=O)O [CA, Capric acid] |  |  |  |  | 1330 ± 223 µM | 341 ± 81 µM
